Where a chain is given by its changes, count along the chain named.
Columns and labels:
Format in all cases: cell-based
[1] = molecular target: T1, GPR39 mutant E90A (Mus musculus, UniProt Q5U431, E90A); assay: Calcium imaging of GPR39 activation site mutant, transiently transfected cells; conditions: FIG. 7
T1 construct: 3HA (N); P2A-mCherry (C); expressed in transfected cells; host or cells: HEK293T, transient (Lipofectamine 3000)
T1 sequence (Q5U431 1-456 E90A): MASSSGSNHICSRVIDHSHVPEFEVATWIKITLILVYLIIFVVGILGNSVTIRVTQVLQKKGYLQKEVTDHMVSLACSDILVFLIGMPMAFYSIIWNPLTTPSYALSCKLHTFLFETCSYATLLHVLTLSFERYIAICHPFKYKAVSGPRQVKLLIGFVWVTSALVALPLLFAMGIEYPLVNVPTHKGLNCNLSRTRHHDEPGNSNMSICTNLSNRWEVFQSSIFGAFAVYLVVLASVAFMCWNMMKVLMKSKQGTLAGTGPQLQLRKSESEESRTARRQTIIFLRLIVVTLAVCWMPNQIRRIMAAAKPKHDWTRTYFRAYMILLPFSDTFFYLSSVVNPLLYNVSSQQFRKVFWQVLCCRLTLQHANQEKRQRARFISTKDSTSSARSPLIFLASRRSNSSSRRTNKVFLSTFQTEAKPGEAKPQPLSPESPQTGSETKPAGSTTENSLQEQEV
Excerpt: (§1) GPR39 mutants E90A, F115A, E116A and D330A were firstly constructed according to the method of Example 5.

[2] = molecular target: T2, GPR39 mutant E116A (Mus musculus, UniProt Q5U431, E116A); assay: as above; conditions: FIG. 7
T2 construct: 3HA (N); P2A-mCherry (C); expressed in transfected cells; host or cells: HEK293T, transient (Lipofectamine 3000)
T2 sequence (Q5U431 1-456 E116A): T1 sequence (Q5U431 1-456 E90A) with A90E, E116A
Excerpt: as §1

[3] = system: GPR39; assay: Confocal calcium imaging of Ghrelin receptor family; conditions: 200 μM

Structure (SMILES): C[C@H](CCC(=O)O)[C@H]1CC[C@H]2[C@@H]3CC[C@@H]4C[C@H](OS(=O)(=O)O)CC[C@]4(C)[C@H]3CC[C@]12C [LCAS]
- activation of mutant E90A (calcium imaging) [1]: activated
- activation of mutant E116A (calcium imaging) [2]: activated
- activation of GPR39 (calcium imaging) [3]: may be activated
